# Results as given in patent US11912693B2, “Compounds for modulating S1P1 activity and methods of using the same” (TREVENA, INC., priority 2017, dated 2024).
# How the values were obtained:
# [1] = target: T1, human sphingosine-1-phosphate receptor 1 (S1P1) (Homo sapiens (Human), UniProt P21453); test: Inhibition of cAMP production (HTRF cAMP HiRange), S1P1 CHO-K1 cells; format: cell-based; details: for Emax: CHO-K1, efficacy (SPAN) normalized to fingolimod, read-out: hS1P1 cAMP SPAN; for hS1P1 cAMP pEC50: inhibition of cAMP production, S1P1 CHO-K1 cells
# Method in brief: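 CHO-K1 cells stably co-expressing human S1P1 (C-terminal Prolink tag) and EA-β-arrestin2 were grown in AssayComplete Media 6 at 37° C. and 5% CO2, plated, and incubated overnight. Agonist-driven inhibition of intracellular cAMP was read by TR-FRET with the HTRF cAMP HiRange kit on a PheraStar reader. Potency is pEC50, and efficacy (SPAN) is normalized to fingolimod.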
# Target sequence in this assay (P21453 whole entry, looked up): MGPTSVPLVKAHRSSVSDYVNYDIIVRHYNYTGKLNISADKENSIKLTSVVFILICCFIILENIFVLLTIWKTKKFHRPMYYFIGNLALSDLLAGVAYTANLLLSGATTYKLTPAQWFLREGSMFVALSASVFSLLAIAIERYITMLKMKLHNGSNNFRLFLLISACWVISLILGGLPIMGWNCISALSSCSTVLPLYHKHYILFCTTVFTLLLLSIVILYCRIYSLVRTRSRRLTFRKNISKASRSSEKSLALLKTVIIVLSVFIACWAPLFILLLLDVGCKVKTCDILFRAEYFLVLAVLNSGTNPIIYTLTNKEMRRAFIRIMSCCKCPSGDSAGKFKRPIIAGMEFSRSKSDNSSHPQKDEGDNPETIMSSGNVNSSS
# [2] = target: T1, human sphingosine-1-phosphate receptor 1 (S1P1); test: β-Arrestin2 recruitment assay (PathHunter), S1P1 CHO-K1 cells; format: cell-based; details: for Emax: CHO-K1, efficacy (SPAN) normalized to fingolimod, read-out: hS1P1 B-arrestin2 SPAN; for hS1P1 B-arrestin2 pEC50: β-arrestin2 recruitment, S1P1 CHO-K1 cells
# Method in brief: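 Enzyme-fragment complementation read-out: agonist-driven β-arrestin2 binding to ProLink-tagged human S1P1 in stable CHO-K1 cells restores β-galactosidase, measured 1 h at room temperature after a 60 min 37° C. compound incubation. Potency as pEC50, efficacy relative to fingolimod (SPAN).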
# Target sequence in this assay (P21453 whole entry, looked up): as above
# Target sequence in this assay (P32121 whole entry partner, looked up): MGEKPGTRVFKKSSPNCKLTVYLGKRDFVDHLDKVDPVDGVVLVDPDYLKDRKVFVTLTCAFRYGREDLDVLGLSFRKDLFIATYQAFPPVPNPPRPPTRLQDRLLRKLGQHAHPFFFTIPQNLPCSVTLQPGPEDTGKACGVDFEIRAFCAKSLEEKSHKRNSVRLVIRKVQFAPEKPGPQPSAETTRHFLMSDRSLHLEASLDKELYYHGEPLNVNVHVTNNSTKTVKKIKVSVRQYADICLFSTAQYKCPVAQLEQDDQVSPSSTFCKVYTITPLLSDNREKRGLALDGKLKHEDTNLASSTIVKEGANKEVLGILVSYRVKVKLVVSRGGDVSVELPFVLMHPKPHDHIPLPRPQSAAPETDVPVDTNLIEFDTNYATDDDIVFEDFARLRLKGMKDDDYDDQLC
SMILES,Emax [1] [%],hS1P1 cAMP pEC50 [1],Emax [2] [%],hS1P1 B-arrestin2 pEC50 [2]
"CC(C)n1ncc2cc(-c3nc(-c4ccccc4Cl)no3)ccc21 [Compound 330, 3-(2-chlorophenyl)-5-(1-isopropyl-1H-indazol-5-yl)-1,2,4-oxadiazole]",> 75,>6.5,> 75,>5
"CC(C)n1ncc2cc(-c3nc(-c4ccccc4OC(F)(F)F)no3)ccc21 [Compound 331, 5-(1-isopropyl-1H-indazol-5-yl)-3-(2-(trifluoromethoxy)phenyl)-1,2,4-oxadiazole]",> 75,>6.5,> 75,>5
"CC(C)n1ncc2cc(-c3nc(-c4ccccc4Br)no3)ccc21 [Compound 332, 3-(2-bromophenyl)-5-(1-isopropyl-1H-indazol-5-yl)-1,2,4-oxadiazole]",> 75,>6.5,> 75,>5
"CC(C)n1ncc2cc(-c3nc(-c4ccccc4O)no3)ccc21 [Compound 333, 2-(5-(1-isopropyl-1H-indazol-5-yl)-1,2,4-oxadiazol-3-yl)phenol]",> 75,>6.5,> 75,<5
"CC(C)Oc1ccccc1-c1noc(-c2ccc3c(cnn3C(C)C)c2)n1 [Compound 334, 3-(2-isopropoxyphenyl)-5-(1-isopropyl-1H-indazol-5-yl)-1,2,4-oxadiazole]",> 75,<6.5,> 75,<5
"COc1cccc(OC)c1-c1noc(-c2ccc3c(cnn3C(C)C)c2)n1 [Compound 335, 3-(2,6-dimethoxyphenyl)-5-(1-isopropylindazol-5-yl)-1,2,4-oxadiazole]",< 75,<6.5,< 75,<5
"CC(C)n1ncc2cc(-c3nc(-c4cccc5c4OCO5)no3)ccc21 [Compound 336, 3-(benzo[d][1,3]dioxol-4-yl)-5-(1-isopropyl-1H-indazol-5-yl)-1,2,4-oxadiazole]",> 75,>6.5,< 75,>5
"CC(C)n1ncc2cc(-c3nc(-c4cccc5c4OCCC5)no3)ccc21 [Compound 337, 3-chroman-8-yl-5-(1-isopropylindazol-5-yl)-1,2,4-oxadiazole]",> 75,>6.5,> 75,>5
"COc1cccc(F)c1-c1noc(-c2ccc3c(cnn3C(C)C)c2)n1 [Compound 338, 3-(2-fluoro-6-methoxy-phenyl)-5-(1-isopropylindazol-5-yl)-1,2,4-oxadiazole]",> 75,<6.5,> 75,<5
"COc1ccccc1-c1nnc(-c2ccc3[nH]oc(=O)c3c2)o1 [Compound 339, 5-[5-(2-methoxyphenyl)-1,3,4-oxadiazol-2-yl]-1,3-dihydro-2,1-benzoxazol-3-one]",,<6.5,,<5
"COc1ccccc1-c1nnc(-c2ccc3c(c2)c(=O)on3C)o1 [Compound 340, 5-[5-(2-methoxyphenyl)-1,3,4-oxadiazol-2-yl]-1-methyl-1,3-dihydro-2,1-benzoxazol-3-one]",,<6.5,,<5
"COc1ccccc1-c1nnc(-c2ccc3c(c2)CCC(=O)N3)o1 [Compound 341, 6-[5-(2-methoxyphenyl)-1,3,4-oxadiazol-2-yl]-1,2,3,4-tetrahydroquinolin-2-one]",,<6.5,,<5
"COC(=O)NS(=O)(=O)n1c(=O)oc2cc(-c3nnc(-c4ccccc4OC)o3)ccc21 [Compound 342, methyl N-({6-[5-(2-methoxyphenyl)-1,3,4-oxadiazol-2-yl]-2-oxo-2,3-dihydro-1,3-benzoxazol-3-yl}sulfonyl)carbamate]",< 75,<6.5,< 75,<5
"N#Cc1cc(-c2nc(-c3ccc4c(c3)CCC(=O)N4)no2)ccc1NCCF [Compound 343, 2-[(2-fluoroethyl)amino]-5-[3-(2-oxo-1,2,3,4-tetrahydroquinolin-6-yl)-1,2,4-oxadiazol-5-yl]benzonitrile]",> 75,>6.5,> 75,>5
"N#Cc1cc(-c2nc(-c3ccc4c(c3)CCC(=O)N4)no2)ccc1NCC(F)F [Compound 344, 2-[(2,2-difluoroethyl)amino]-5-[3-(2-oxo-1,2,3,4-tetrahydroquinolin-6-yl)-1,2,4-oxadiazol-5-yl]benzonitrile]",> 75,>6.5,> 75,>5
"N#Cc1cc(-c2nc(-c3ccc4c(c3)CCC(=O)N4)no2)ccc1N [Compound 345, 2-amino-5-[3-(2-oxo-1,2,3,4-tetrahydroquinolin-6-yl)-1,2,4-oxadiazol-5-yl]benzonitrile]",< 75,<6.5,< 75,<5
"C=C(F)CNc1ccc(-c2nc(-c3ccc4c(c3)CCC(=O)N4)no2)cc1C#N [Compound 346, 2-[(2-fluoroprop-2-en-1-yl)amino]-5-[3-(2-oxo-1,2,3,4-tetrahydroquinolin-6-yl)-1,2,4-oxadiazol-5-yl]benzonitrile]",> 75,>6.5,> 75,>5
"CC(F)(F)CNc1ccc(-c2nc(-c3ccc4c(c3)CCC(=O)N4)no2)cc1C#N [Compound 347, 2-[(2,2-difluoropropyl)amino]-5-[3-(2-oxo-1,2,3,4-tetrahydroquinolin-6-yl)-1,2,4-oxadiazol-5-yl]benzonitrile]",> 75,>6.5,> 75,>5
"COc1ccccc1-c1nnc(-c2ccc3[nH]c(=O)oc3c2)o1 [Compound 349, 6-[5-(2-methoxyphenyl)-1,3,4-oxadiazol-2-yl]-2,3-dihydro-1,3-benzoxazol-2-one]",< 75,>6.5,< 75,<5
"COc1ccccc1-c1nnc(-c2ccc3c(c2)oc(=O)n3C)o1 [Compound 350, 6-[5-(2-methoxyphenyl)-1,3,4-oxadiazol-2-yl]-3-methyl-2,3-dihydro-1,3-benzoxazol-2-one]",< 75,<6.5,< 75,<5
"CC(C)Nc1ccc(-c2nnc(-c3ccc4[nH]ncc4c3)o2)cc1C#N [Compound 351, 5-[5-(1H-indazol-5-yl)-1,3,4-oxadiazol-2-yl]-2-[(propan-2-yl)amino]benzonitrile]",> 75,>6.5,> 75,>5
"N#Cc1cc(-c2nnc(-c3ccc4[nH]ncc4c3)o2)ccc1NCC1CC1 [Compound 352, 2-[(cyclopropylmethyl)amino]-5-[5-(1H-indazol-5-yl)-1,3,4-oxadiazol-2-yl]benzonitrile]",> 75,>6.5,> 75,>5
"N#Cc1cc(-c2nnc(-c3ccc4[nH]ncc4c3)o2)ccc1NCCF [Compound 353, 2-[(2-fluoroethyl)amino]-5-[5-(1H-indazol-5-yl)-1,3,4-oxadiazol-2-yl]benzonitrile]",> 75,>6.5,> 75,>5
"N#Cc1cc(-c2nnc(-c3ccc4[nH]cnc4c3)o2)ccc1NCC1CC1 [Compound 357, 5-[5-(1H-1,3-benzodiazol-5-yl)-1,3,4-oxadiazol-2-yl]-2-[(cyclopropylmethyl)amino]benzonitrile]",> 75,>6.5,> 75,>5
"Cc1nc(-c2ccccc2)oc1-c1cnc2c(c1)CC(=O)N2 [Compound 360, 5-(4-methyl-2-phenyl-1,3-oxazol-5-yl)-1H,2H,3H-pyrrolo[2,3-b]pyridin-2-one]",,<6.5,,<5
